The source of these data is patent US20130102009A1, “SIRTUIN ACTIVATORS AND ACTIVATION ASSAYS” (priority 2010, published 2013).

The target of one experiment is T1, SIRT1(183-664) (Homo sapiens, UniProt Q96EB6).
T1 construct: the truncated version used for biophysical studies SIRT1(183-664); made in house
T1 sequence (Q96EB6 183-664): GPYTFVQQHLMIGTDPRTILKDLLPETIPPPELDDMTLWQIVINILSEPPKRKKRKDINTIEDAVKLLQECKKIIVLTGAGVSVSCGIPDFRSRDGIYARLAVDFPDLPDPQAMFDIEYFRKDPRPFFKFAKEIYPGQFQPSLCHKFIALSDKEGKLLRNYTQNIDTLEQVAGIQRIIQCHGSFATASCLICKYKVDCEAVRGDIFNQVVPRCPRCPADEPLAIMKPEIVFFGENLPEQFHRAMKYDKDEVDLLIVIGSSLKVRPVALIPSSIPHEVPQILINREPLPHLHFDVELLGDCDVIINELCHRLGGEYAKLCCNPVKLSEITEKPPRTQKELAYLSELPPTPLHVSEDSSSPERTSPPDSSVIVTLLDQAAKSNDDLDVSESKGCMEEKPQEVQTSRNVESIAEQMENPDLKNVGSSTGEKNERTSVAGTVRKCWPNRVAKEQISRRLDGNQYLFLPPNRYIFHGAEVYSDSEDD
The experiment is described as follows: ITC binding of STACs to SIRT1(183-664). The following applies: dissociation constant of SRT:SIRT1 complex, read-out: Kx (μM), ITC. As to the method: All peptides were prepared by BioPeptide (San Diego, Calif.) and shown to be at least 95% pure by analytical HPLC analysis. Bovine glutamate dehydrogenase (GDH), α-ketoglutarate, NADH and NAD^+ were from Sigma Chemical Company. Full-length, human SIRT1 and the truncated version used for biophysical studies SIRT1(183-664) were prepared as described previously, and shown to have equivalent kinetic properties (Milne et al. (2007) Nature 450, 712-716). The nicotinamidase PNC1 was prepared as described by Denu and colleagues (Smith et al. (2009) Anal Biochem 394, 101-109). ITC experiments were performed using either a VP-ITC system or iTC200 system (MicroCal) at 26° C. in a buffer composed of 137 mM NaCl, 2.7 mM KCl, 1 mM MgCl2, 2 mM TCEP, 5% (v/v) glycerol and 50 mM HEPES-NaOH, pH 7.3. SIRT1(183-664) was purified and dialyzed against the buffer, centrifuged, and degassed before the experiment. The peptide and compounds were dissolved in the final dialysis buffer and their pH values were adjusted to match that of the protein solution. […] To characterize this interaction using the iTC200 system, 1 mM TAMRA-peptide was injected in 20 aliquots of 2 μL, (except the first injection, which was 0.5 μL) into a 0.202 mL sample cell containing 100 μM STAC. For STACs with poor solubility, the concentrations were adjusted accordingly. […] To characterize the interaction of a STAC with SIRT1(183-664) on the VP-ITC system, 100 μM enzyme was injected in 35 aliquots of 8 μL, (except the first injection, which was 2 μL) into a 1.47 mL sample cell containing 10 μM STAC. […] In all cases, data was corrected for the heat of dilution and fitted using a nonlinear least-squares routine using a single-site binding model with Origin for ITC v7.0383 (Microcal) with the stoichiometry (n), the enthalpy of the reaction (ΔH) and the association constant (Ka) calculated.

In experiment [1] the target is T2, SIRT1 (Homo sapiens, UniProt Q96EB6).
T2 sequence (Q96EB6 1-747): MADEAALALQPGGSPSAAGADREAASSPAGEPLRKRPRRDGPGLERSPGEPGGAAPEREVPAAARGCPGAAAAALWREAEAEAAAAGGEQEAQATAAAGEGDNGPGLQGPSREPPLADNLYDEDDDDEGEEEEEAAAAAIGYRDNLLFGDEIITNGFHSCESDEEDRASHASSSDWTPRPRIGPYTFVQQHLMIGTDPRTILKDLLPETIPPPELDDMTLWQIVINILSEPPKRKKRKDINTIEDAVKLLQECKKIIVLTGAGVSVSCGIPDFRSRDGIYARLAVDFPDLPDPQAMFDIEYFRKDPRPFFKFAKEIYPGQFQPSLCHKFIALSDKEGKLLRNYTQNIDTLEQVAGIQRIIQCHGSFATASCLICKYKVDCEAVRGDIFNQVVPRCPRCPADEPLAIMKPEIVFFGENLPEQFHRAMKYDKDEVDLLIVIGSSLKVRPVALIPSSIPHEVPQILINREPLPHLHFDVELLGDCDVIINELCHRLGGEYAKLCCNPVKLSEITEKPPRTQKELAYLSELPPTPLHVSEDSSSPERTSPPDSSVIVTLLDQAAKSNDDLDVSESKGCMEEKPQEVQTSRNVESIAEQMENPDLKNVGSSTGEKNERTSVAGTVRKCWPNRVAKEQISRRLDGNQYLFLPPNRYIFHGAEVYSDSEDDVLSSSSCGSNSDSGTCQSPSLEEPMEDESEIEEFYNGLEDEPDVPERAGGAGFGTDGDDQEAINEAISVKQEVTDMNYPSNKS
The experiment is described as follows: Steady-state kinetic parameters for SIRT1 substrates (PNC1-GDH-coupled assay). In kind it is biochemical. Also on record: kc/K1: unit not given here. The note with it: 25° C., pH 7.5, [NAD+]o = 2 mM, [SIRT1]o 50-1,000 nM. As for the experimental part: All peptides were prepared by BioPeptide (San Diego, Calif.) and shown to be at least 95% pure by analytical HPLC analysis. Bovine glutamate dehydrogenase (GDH), α-ketoglutarate, NADH and NAD^+ were from Sigma Chemical Company. Full-length, human SIRT1 and the truncated version used for biophysical studies SIRT1(183-664) were prepared as described previously, and shown to have equivalent kinetic properties (Milne et al. (2007) Nature 450, 712-716). The nicotinamidase PNC1 was prepared as described by Denu and colleagues (Smith et al. (2009) Anal Biochem 394, 101-109).
To determine the interaction of STACs with SIRT1 two kinetic methods were employed. One, which was used for TAMRA-peptide, desTAMRA-peptide, des(biotin,TAMRA)-peptide, and p53-20 mer, used a previously described mass spectroscopic method for detection of peptide reaction products (Milne et al. (2007) Nature 450, 712-716). The other, used with peptides of general structure Ac-Arg-His-Lys-Lys^Ac-X, used a continuous, enzyme-coupled method reported previously (Smith et al. (2009) Anal Biochem 394, 101-109), in which the SRT1 product nicotinamide is first converted into nicotinic acid and ammonia by the action of PNC1, and the ammonia then used by GDH to convert α-ketoglutarate into glutamate. This reaction occurs with oxidation of NADH to NAD^+ which is accompanied by a change in absorbance at 340 nm (Δε340=−6,200 M^−1 cm^−1).
The kinetic experiments used to characterize activators were run on a Perkin Elmer Lambda 25 spectrophotometer equipped with a water-jacketed, eight-cell changer maintained at 25° C. In a typical kinetic experiment, all components of the reaction solution except SIRT1 were added to a 1 mL cuvette and allowed to reach thermal equilibrium. Final concentrations of the coupling system components were: 1 μM PNC1, 0.23 mM NADH, 3.4 mM α-ketoglutarate, and 20 U/mL bovine GDH. This solution also contained peptide substrate, NAD^.0., and activator, at concentrations indicated in the text. The final DMSO concentration was kept constant at 1%, and the buffer used in these experiments was 50 mM HEPES, 150 mM NaCl, pH 7.5. While the system was reaching thermal equilibrium, the absorbance was monitored to provide an accurate estimate of the background rate, which was subtracted from the reaction rate after the addition of SIRT1.
The parameters reported in this table were all determined using the PNC1-GDH-coupled assay. Kinetic parameters for the four 20 mers were also estimated using the mass spectroscopy-based assay first described by Milne et al. ((2007) Nature 450, 712-716) and agree with those reported in Table 3.

Experiment [2] concerns the target T2, SIRT1. The experiment is described as follows: Mass spectrometry based SIRT1 activation assay (TAMRA/5TMR-labeled 20mer peptide). In kind it is biochemical. The source says: A mass spectrometry based assay was used to identify modulators of SIRTI activity. The mass spectrometry based assay utilizes a peptide having 20 amino acid residues as follows: Ac-EE-K(biotin)-GQSTSSHSK(Ac)NleSTEG-K(5TMR)-EE-NH2 (SEQ ID NO: 1) wherein K(Ac) is an acetylated lysine residue and Nle is a norleucine. The peptide is labeled with the fluorophore 5TMR (excitation 540 nrnIemission 580 nm) at the C-terminus. The sequence of the peptide substrate is based on p53 with several modifications. In addition, the methionine residue naturally present in the sequence was replaced with the norleucine because the methionine may be susceptible to oxidation during synthesis and purification.
The mass spectrometry assay is conducted as follows: 0.5 J-1M peptide substrate and 120 μM βNAD^+ is incubated with 10 nM SIRT1 for 25 minutes at 25° C. in a reaction buffer (50 mM Tris-acetate pH 8, 137 mM NaCl, 2.7 mM KCl, 1 mM MgClz, 5 mM DTT, 0.05% BSA). Test compounds may be added to the reaction as described above. The SirTI gene is cloned into a T7-promoter containing vector and transformed into BL21 (DE3). After the 25 minute incubation with SIRT1, 10 μL of 10% formic acid is added to stop the reaction. Reactions are sealed and frozen for later mass spec analysis. Determination of the mass of the substrate peptide allows for precise determination of the degree of acetylation (i.e. starting material) as compared to deacetylated peptide (product).
A control for inhibition of sirtuin activity is conducted by adding 1 μL of 500 mM nicotinamide as a negative control at the start of the reaction (e.g., permits determination of maximum sirtuin inhibition). A control for activation of sirtuin activity is conducted using 10 nM of sirtuin protein, with 1 μL of DMSO in place of compound, to determine the amount of deacetylation of the substrate at a given timepoint within the linear range of the assay. This timepoint is the same as that used for test compounds and, within the linear range, the endpoint represents a change in velocity.
For the above assay, SIRTI protein was expressed and purified as follows. The SirT1 gene was cloned into a T7-promoter containing vector and transformed into BL21(DE3). The protein was expressed by induction with 1 mM IPTG as an N-terminal His-tag fusion protein at 18° C. overnight and harvested at 30,000×g. Cells were lysed with lysozyme in lysis buffer (50 mM Tris-HCl, 2 mM Tris[2-carboxyethyl]phosphine (TCEP), 10 μM ZnCl2, 200 mM NaCl) and further treated with sonication for 10 min for complete lysis. The protein was purified over a Ni-NTA column (Amersham) and fractions containing pure protein were pooled, concentrated and run over a sizing column (Sephadex S200 26/60 global). The peak containing soluble protein was collected and run on an Ion-exchange column (MonoQ). Gradient elution (200 mM-500 mM NaCl) yielded pure 20 protein. This protein was concentrated and dialyzed against dialysis buffer (20 mM TrisHCl, 2 mM TCEP) overnight. The protein was aliquoted and frozen at −80° C. until further use.
Sirtuin modulating compounds that activated SIRT1 were identified using the assay described above and are shown below in Table 4. The EC1.5 values represent the concentration of test compounds that result in 150% activation of SIRT1. The EC1.5 values for the activating compounds are represented by A (EC1.5≦1 μM), B (EC1.5>1 μM). The percent maximum fold activation is represented by A (Fold activation ≧200%) or B (Fold Activation <200%).

Peptide text beside a SMILES is read from it. Bounds are passed on as bounds.

With `CCCNc1cc(-c2nc3c(NC(=O)c4ccc(CN5CCNCC5)cc4)cccc3[nH]2)ccn1` [drawing 20], at SIRT1(183-664), the Kd came out at 0.43 µM. Turning to `CN(C)CCCNc1cc(-c2nc3c(NC(=O)c4ccc(CN5CCNCC5)cc4)cccc3[nH]2)ccn1` [drawing 21], the Kd at SIRT1(183-664) stood at 0.32 µM. On SIRT1 [1], `CC(=O)NCCCC[C@H](NC(=O)[C@H](CCCCN)NC(=O)[C@H](Cc1c[nH]cn1)NC(=O)[C@H](CCCNC(=N)N)NC(C)=O)C(=O)N[C@@H](C)C(N)=O` [RHKK^AcA, Ac-Arg-His-Lys-Lys^Ac-Ala] (Ac-RHKK(Ac)A-NH2) displayed a kc of 0.15 s⁻¹ and a kc/K1 of 12. As to `CCCNc1cc(-c2nc3c(NC(=O)c4ccc(CN5CCNCC5)cc4)cccc3[nH]2)ccn1` [Compound 13], on SIRT1 [2] (25 min, percent maximum fold activation of SIRT1, read-out: % FOLD ACT.), the Emax is not below 200%. For the same compound, at SIRT1 [2] (concentration that results in 150% activation of SIRT1), the “EC1.5 uM” value is reported as “A (EC1.5≦1 μM)”. The Kd at SIRT1(183-664) is 0.32 µM.
